Laboratory results taken from patent US11891405B2, “Furo[3,4-b]pyrrole-containing BTK inhibitor” (CHIA TAI TIANQING PHARMACEUTICAL GROUP CO., LTD., priority 2018, dated 2024).
Read-outs that look alike come from different tables or passages of the source. Each block holds one compound with its values, some of them ahead of it.

Tests used:
[1] = In vivo pharmacokinetic assay on mouse; settings: ICR mice; for MRT last: read-out: MRT(0-t)
Description: EXPERIMENTAL EXAMPLE 4: IN VIVO PHARMACOKINETIC ASSAY ON MOUSE
ICR mice weighing 18-22 g were randomly grouped into 9 mice in each group after being fed for 3-5 days, and administered intragastrically with related compound at a dose of 10 mg/kg, and injected intravenously with the test compound at a dose of 1 mg/kg, respectively. The test animals (ICR mice) were fasted for 12 h before administration and fed for 4 h after administration, and water was freely drunk before and after the experiment and during the experiment. After intragastric administration, 0.1 mL of the blood at the orbit was collected at 0.25 h (15 min), 0.5 h (30 min), 1 h, 2 h, 4 h, 6 h, 8 h, 10 h and 24 h, and after intravenous injection, 0.1 mL of the blood at the orbit was collected at 0.083 h (5 min), 0.167 h (10 min), 0.5 h (30 min), 1 h, 2 h, 6 h, 8 h, 10 h and 24 h. Each mouse was sampled at 3-4 time points, and 3 mice were sampled at each time point. Whole blood was collected and placed in centrifuge tubes containing EDTA-K2 and sodium fluoride, then transferred to a 4° C. centrifuge within 30 min and centrifuged at 4000 rpm for 10 min to separate the plasma. All plasma was collected and immediately stored at −20° C. for testing. 20 μL of a plasma test sample and a standard curve sample were pipetted into 300 μL of acetonitrile solution containing an internal standard (diazepam […]), and the mixture was shaken and mixed for 5 min, and centrifuged at 13,000 rpm for 10 min. 80 μL of supernatant was diluted with 80 μL of ultrapure water, and the mixture was mixed well, form which 1 μL of the sample was pipetted and analyzed by LC/MS/MS, and a chromatogram was recorded. Oral and intravenous exposure of the compounds disclosed herein was evaluated by pharmacokinetic experiments in mice and the results are shown in Table 4.

[2] = tested on: OCI-LY10 cells; assay: In vivo pharmacodynamic study, OCI-LY10 xenograft; parameters: species or system NOD-SCID mice; settings: for TGI (%): tumor growth inhibition from tumor weight, 23 days; for TGI (%) / d0 TV Mean ± SD: 50 mg/kg bid i.g.; for d0 TV Mean ± SD: tumor volume at day 0 (grouping); for d21 TV Mean ± SD: tumor volume at day 21, 50 mg/kg bid i.g.; for d23 TV Mean ± SD: tumor volume at day 23, 50 mg/kg bid i.g.
Description: EXPERIMENTAL EXAMPLE 5: IN VIVO PHARMACODYNAMIC STUDY
OCI-LY10 cells were subcutaneously grafted (concentration: 1×10^8/mL×0.1 mL/mice) in NOD-SCID mice at the right side armpit (the inoculated site was shaved upon grafting) under aseptic conditions. After subcutaneous grafting, the animals were grouped when the tumor volume reached about 100-300 mm^3:
Model group: vehicle: 6 mice; I-1: 6 mice, 50 mg/kg, bid, i.g.; I-3: 6 mice, 50 mg/kg, bid, i.g.
The vehicle or compound was administered by intragastric administration at a volume of 10 mL/kg, twice daily, for 23 days. The tumor volume was measured 2-3 times per week, and the mice were weighed at the same time, with the data recorded. Animal behavior was observed daily. After all administration was completed, the animals were executed, stripped of tumors and weighed.
The tumor volume and the tumor growth inhibition were calculated using the following formulas: Tumor volume(TV)=(Length×Width^2)/2. Tumor growth inhibition(TGI)=(1−tumor weight in treatment group/tumor weight in model group)×100%.

[3] = molecular target: BTK(WT) (Homo sapiens, UniProt Q06187); assay: Screening for BTK inhibitory activity; assay type: biochemical
BTK(WT), sequence (Q06187 whole entry): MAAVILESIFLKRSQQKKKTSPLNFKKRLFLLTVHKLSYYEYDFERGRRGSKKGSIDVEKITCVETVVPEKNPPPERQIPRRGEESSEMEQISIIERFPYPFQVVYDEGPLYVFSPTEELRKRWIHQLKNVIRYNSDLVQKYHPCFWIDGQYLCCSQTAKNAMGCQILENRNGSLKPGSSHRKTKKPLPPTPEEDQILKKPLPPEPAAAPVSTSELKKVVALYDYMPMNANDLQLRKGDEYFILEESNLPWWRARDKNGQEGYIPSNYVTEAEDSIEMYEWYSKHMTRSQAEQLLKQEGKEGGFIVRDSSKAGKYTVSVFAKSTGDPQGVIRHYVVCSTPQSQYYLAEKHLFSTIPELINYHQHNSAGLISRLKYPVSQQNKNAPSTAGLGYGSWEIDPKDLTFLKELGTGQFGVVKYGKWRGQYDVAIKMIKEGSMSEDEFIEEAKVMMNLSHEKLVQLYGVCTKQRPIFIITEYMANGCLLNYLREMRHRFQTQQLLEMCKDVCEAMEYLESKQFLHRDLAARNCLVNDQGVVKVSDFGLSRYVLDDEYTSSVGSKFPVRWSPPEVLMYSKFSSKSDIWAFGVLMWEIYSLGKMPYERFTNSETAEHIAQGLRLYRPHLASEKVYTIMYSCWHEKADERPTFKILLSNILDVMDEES
Description: 1.1 Screening for BTK Inhibitory Activity
350 ng/μL BTK stock solution was diluted with kinase buffer (50 mM HEPES, 10 mM MgCl2, 2 mM DTT, 1 mM EGTA, 0.01% Tween 20), and 6 μL of 1.67× working solution at 0.0334 ng/μL (final concentration: 0.02 ng/μL) was added to each well. Different compounds dissolved in DMSO were added to the wells using a nanoliter pipettor, resulting in the final concentration of 1000 nM to 0.244 nM (4-fold gradient for 7 concentrations in total), and blank control wells (without enzyme) and negative control wells (with enzyme, plus vehicle DMSO) were set, 2 replicate wells for each well. After enzyme was reacted with the compound or vehicle for 30 min, 5×ATP at 100 μM (final concentration: 20 μM) prepared with kinase buffer was mixed with 5×substrate at 0.5 μM (final concentration: 0.1 μM, ULight-poly GT) at a ratio of 1:1, and the mixture was added to each well at 4 μL/well. After being sealed with a film, the plate was incubated at room temperature for 2 h, then 5 μL of 4×EDTA at 40 mM (final concentration: 10 mM) was added to each well. After the plate was incubated for 5 min at room temperature, 5 μL of 4× detection reagent at 8 nM (final concentration: 2 nM, Ab) was added to each well, followed by incubation at room temperature for 1 h. The plate was read using a PE Envision multi-functional microplate reader ([…], emission: 665 nm), and IC50 was calculated by four-parameter fitting.

t1/2z ([1]; ig 10 mg/kg): 142 min
CLz ([1]; iv 1 mg/kg): 340 mL/min/kg
t1/2z ([1]; iv 1 mg/kg): 43.8 min
bioavailability ([1]; mouse, plasma, oral, ig 10 mg/kg vs iv 1 mg/kg, read-out: Absolute bioavailability F %): 72.4%
AUC(0-inf) ([1]; mouse, plasma, po, ig 10 mg/kg): 315 ng·h/mL
AUC(0-t) ([1]; mouse, plasma, po, ig 10 mg/kg): 315 ng·h/mL
Cmax ([1]; mouse, plasma, po, ig 10 mg/kg): 92.7 ng/mL
Tmax ([1]; mouse, plasma, po, ig 10 mg/kg): 15 min
MRT last ([1]; mouse, plasma, po, ig 10 mg/kg): 184 min
AUC(0-inf) ([1]; mouse, plasma, iv 1 mg/kg): 43.6 ng·h/mL
AUC(0-t) ([1]; mouse, plasma, iv 1 mg/kg): 43.6 ng·h/mL
MRT last ([1]; mouse, plasma, iv 1 mg/kg): 31.2 min
Vd ([1]; mouse, plasma, iv 1 mg/kg, read-out: Vz): 21.5 L/kg
IC50 [3]: 52.1 nM
Compound: CC#CC(=O)N1[C@@H]2COC[C@@H]2C[C@H]1c1nc(-c2ccc(C(=O)Nc3ccccn3)cc2)c2c(N)nccn12 [Compound I-1, 4-(8-amino-3-((2S,3aR,6aS)-1-(but-2-ynoyl)hexahydro-1H-furo[3,4-b]pyrrol-2-yl)imidazo [1,5-a]pyrazin-1-yl)-N-(pyridin-2-yl)benzamide]
TGI (%) [2]: 79.4%
d0 TV Mean ± SD [2]: 176 ± 35 mm^3
d21 TV Mean ± SD [2]: 742 ± 109 mm^3
d23 TV Mean ± SD [2]: 847 ± 189 mm^3

IC50 [3]: 21.4 nM
Compound: C=CC(=O)N1[C@@H]2COC[C@@H]2C[C@H]1c1nc(-c2ccc(C(=O)Nc3ccccn3)cc2)c2c(N)nccn12 [Compound I-3, 4-(3-((2S,3AR,6AS)-1-ACRYLOYLHEXAHYDRO-1H-FURO[3,4-B]PYRROL-2-YL)-8-AMINOIMIDAZO [1,5-A]PYRAZIN-1-YL)-N-(PYRIDIN-2-YL)BENZAMIDE]
TGI (%) [2]: 84.1%
d0 TV Mean ± SD [2]: 177 ± 16 mm^3
d21 TV Mean ± SD [2]: 645 ± 202 mm^3
d23 TV Mean ± SD [2]: 647 ± 343 mm^3

IC50 [3]: 12.4 nM
Compound: CC#CC(=O)N1[C@@H]2COC[C@@H]2C[C@H]1c1nc(-c2ccc(C(=O)Nc3cc(C(F)(F)F)ccn3)cc2F)c2c(N)nccn12 [Compound I-4, 4-(8-AMINO-3-((2S,3AR,6AS)-1-(BUT-2-YNOYL)HEXAHYDRO-1H-FURO[3,4-B]PYRROL-2-YL)IMIDAZO[1,5-A]PYRAZIN-1-YL)-3-FLUORO-N-(4-(TRIFLUOROMETHYL)PYRIDIN-2-YL)BENZAMIDE]

IC50 [3]: 9.7 nM
Compound: Nc1nccn2c([C@@H]3C[C@H]4COC[C@H]4N3C(=O)C3CC3)nc(-c3ccc(C(=O)Nc4cc(C(F)(F)F)ccn4)cc3F)c12 [Compound I-7, 4-(8-AMINO-3-((2S,3AR,6AS)-1-(CYCLOPROPANECARBONYL)HEXAHYDRO-1H-FURO[3,4-B]PYRROL-2-YL)IMIDAZO[1,5-A]PYRAZIN-1-YL)-3-FLUORO-N-(4-(TRIFLUOROMETHYL)PYRIDIN-2-YL)BENZAMIDE]
